From the supplement of paper PMC10883282

Assays:
Assay in all cases: relative viability vs DMSO control (72 h) (fraction); higher = more viable cells
VA-ES-BJ = test system: VA-ES-BJ
Outline: (§1)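 Sarcoma cell lines were seeded in 384-well plates at densities set to reach 80–90% confluence. After 24 h, 2.5 µl of serially diluted compound was added (source plates 10 mM to 0.0002 mM), and plates were held 72 h at 37 °C, 5% CO2, with 0.1% DMSO vehicle and a 5 µM positive control. Relative viability came from ATPLite readings as percent growth, averaged over up to triplicate wells. Data were rescaled so full viability equals 1 and none equals 0.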

SK-LMS-1 = test system: SK-LMS-1
Outline: as §1

SW1353 = test system: SW1353
Outline: as §1

SW684 = test system: SW684
Outline: as §1

A204 = test system: A204
Outline: as §1

MES-SA = test system: MES-SA
Outline: as §1

HT1080 = test system: HT1080
Outline: as §1

G401 = test system: G401
Outline: as §1

SYO-1 = test system: SYO-1
Outline: as §1

SW872 = test system: SW872
Outline: as §1

KHOS-NP = test system: KHOS-NP
Outline: as §1

HS729 = test system: HS729
Outline: as §1

COc1cc2ncnc(Nc3ccc(F)c(Cl)c3)c2cc1NC(=O)/C=C/CN1CCCCC1 [Dacomitinib]
Settings	relative viability
A204, 0.00017 µM	1.1
A204, 0.00051 µM	1.09
A204, 0.00152 µM	1.09
A204, 0.00457 µM	1.08
A204, 0.01372 µM	1.04
A204, 0.04115 µM	1.07
A204, 0.1235 µM	1.06
A204, 0.3704 µM	0.978
A204, 1.111 µM	0.751
A204, 3.333 µM	0.327
A204, 10 µM	0.0139
G401, 0.00017 µM	1.02
G401, 0.00051 µM	1.01
G401, 0.00152 µM	1.03
G401, 0.00457 µM	1.03
G401, 0.01372 µM	1.01
G401, 0.04115 µM	0.999
G401, 0.1235 µM	1.02
G401, 0.3704 µM	0.997
G401, 1.111 µM	0.849
G401, 3.333 µM	0.548
G401, 10 µM	0.00623
HS729, 0.00017 µM	1.08
HS729, 0.00051 µM	1.04
HS729, 0.00152 µM	1.03
HS729, 0.00457 µM	1.04
HS729, 0.01372 µM	1.01
HS729, 0.04115 µM	0.975
HS729, 0.1235 µM	1
HS729, 0.3704 µM	0.894
HS729, 1.111 µM	0.844
HS729, 3.333 µM	0.737
HS729, 10 µM	0.318
HT1080, 0.00017 µM	1.12
HT1080, 0.00051 µM	1.11
HT1080, 0.00152 µM	1.11
HT1080, 0.00457 µM	1.11
HT1080, 0.01372 µM	1.08
HT1080, 0.04115 µM	1.12
HT1080, 0.1235 µM	1.12
HT1080, 0.3704 µM	1.13
HT1080, 1.111 µM	1.15
HT1080, 3.333 µM	0.769
HT1080, 10 µM	0.0364
KHOS-NP, 0.00017 µM	1.09
KHOS-NP, 0.00051 µM	1.09
KHOS-NP, 0.00152 µM	1.1
KHOS-NP, 0.00457 µM	1.09
KHOS-NP, 0.01372 µM	1.08
KHOS-NP, 0.04115 µM	1.086
KHOS-NP, 0.1235 µM	1.08
KHOS-NP, 0.3704 µM	1.08
KHOS-NP, 1.111 µM	1.08
KHOS-NP, 3.333 µM	0.985
KHOS-NP, 10 µM	0.0233
MES-SA, 0.00017 µM	0.967
MES-SA, 0.00051 µM	0.942
MES-SA, 0.00152 µM	0.949
MES-SA, 0.00457 µM	0.932
MES-SA, 0.01372 µM	0.926
MES-SA, 0.04115 µM	0.927
MES-SA, 0.1235 µM	0.893
MES-SA, 0.3704 µM	0.879
MES-SA, 1.111 µM	0.731
MES-SA, 3.333 µM	0.342
MES-SA, 10 µM	0.00577
SK-LMS-1, 0.00017 µM	1.11
SK-LMS-1, 0.00051 µM	1.11
SK-LMS-1, 0.00152 µM	1.11
SK-LMS-1, 0.00457 µM	1.13
SK-LMS-1, 0.01372 µM	1.09
SK-LMS-1, 0.04115 µM	1.08
SK-LMS-1, 0.1235 µM	1.04
SK-LMS-1, 0.3704 µM	1.03
SK-LMS-1, 1.111 µM	0.916
SK-LMS-1, 3.333 µM	0.701
SK-LMS-1, 10 µM	0.013
SW684, 0.00017 µM	1.22
SW684, 0.00051 µM	1.23
SW684, 0.00152 µM	1.208
SW684, 0.00457 µM	1.18
SW684, 0.01372 µM	1.18
SW684, 0.04115 µM	1.15
SW684, 0.1235 µM	1.22
SW684, 0.3704 µM	1.08
SW684, 1.111 µM	1.01
SW684, 3.333 µM	0.599
SW684, 10 µM	-0.00213
SW872, 0.00017 µM	1.1
SW872, 0.00051 µM	1.12
SW872, 0.00152 µM	1.1
SW872, 0.00457 µM	1.11
SW872, 0.01372 µM	1.11
SW872, 0.04115 µM	1.08
SW872, 0.1235 µM	1.05
SW872, 0.3704 µM	1.03
SW872, 1.111 µM	0.87
SW872, 3.333 µM	0.508
SW872, 10 µM	0.043
SW1353, 0.00017 µM	1.06
SW1353, 0.00051 µM	1.05
SW1353, 0.00152 µM	1.02
SW1353, 0.00457 µM	0.9671
SW1353, 0.01372 µM	0.927
SW1353, 0.04115 µM	0.884
SW1353, 0.1235 µM	0.8331
SW1353, 0.3704 µM	0.764
SW1353, 1.111 µM	0.665
SW1353, 3.333 µM	0.401
SW1353, 10 µM	0.0104
SYO-1, 0.00017 µM	1.02
SYO-1, 0.00051 µM	1.02
SYO-1, 0.00152 µM	1.01
SYO-1, 0.00457 µM	1.02
SYO-1, 0.01372 µM	1
SYO-1, 0.04115 µM	1.01
SYO-1, 0.1235 µM	0.986
SYO-1, 0.3704 µM	0.888
SYO-1, 1.111 µM	0.824
SYO-1, 3.333 µM	0.287
SYO-1, 10 µM	-0.0103
VA-ES-BJ, 0.00017 µM	1.064
VA-ES-BJ, 0.00051 µM	1.08
VA-ES-BJ, 0.00152 µM	1.09
VA-ES-BJ, 0.00457 µM	1.09
VA-ES-BJ, 0.01372 µM	1.03
VA-ES-BJ, 0.04115 µM	0.979
VA-ES-BJ, 0.1235 µM	1.02
VA-ES-BJ, 0.3704 µM	0.994
VA-ES-BJ, 1.111 µM	0.914
VA-ES-BJ, 3.333 µM	0.535
VA-ES-BJ, 10 µM	-0.0076

N#CCC1(n2cc(-c3ncnc4[nH]ccc34)cn2)CN(C2CCN(C(=O)c3ccnc(C(F)(F)F)c3F)CC2)C1 [Itacitinib]
Settings	relative viability
A204, 0.00017 µM	1.02
A204, 0.00051 µM	1.02
A204, 0.00152 µM	1.03
A204, 0.00457 µM	1.02
A204, 0.01372 µM	1.04
A204, 0.04115 µM	1.03
A204, 0.1235 µM	1.01
A204, 0.3704 µM	0.959
A204, 1.111 µM	0.948
A204, 3.333 µM	0.936
A204, 10 µM	0.836
G401, 0.00017 µM	0.99
G401, 0.00051 µM	0.967
G401, 0.00152 µM	0.921
G401, 0.00457 µM	0.912
G401, 0.01372 µM	0.962
G401, 0.04115 µM	0.929
G401, 0.1235 µM	0.902
G401, 0.3704 µM	0.953
G401, 1.111 µM	0.931
G401, 3.333 µM	0.913
G401, 10 µM	0.862
HS729, 0.00017 µM	1
HS729, 0.00051 µM	0.966
HS729, 0.00152 µM	0.937
HS729, 0.00457 µM	0.889
HS729, 0.01372 µM	0.833
HS729, 0.04115 µM	0.885
HS729, 0.1235 µM	0.792
HS729, 0.3704 µM	0.822
HS729, 1.111 µM	0.806
HS729, 3.333 µM	0.758
HS729, 10 µM	0.751
HT1080, 0.00017 µM	1.04
HT1080, 0.00051 µM	1.02
HT1080, 0.00152 µM	1.04
HT1080, 0.00457 µM	1.01
HT1080, 0.01372 µM	1.03
HT1080, 0.04115 µM	0.991
HT1080, 0.1235 µM	1.03
HT1080, 0.3704 µM	1.004
HT1080, 1.111 µM	0.993
HT1080, 3.333 µM	1.02
HT1080, 10 µM	1
KHOS-NP, 0.00017 µM	1.087
KHOS-NP, 0.00051 µM	1.11
KHOS-NP, 0.00152 µM	1.09
KHOS-NP, 0.00457 µM	1.07
KHOS-NP, 0.01372 µM	1.06
KHOS-NP, 0.04115 µM	1.048
KHOS-NP, 0.1235 µM	1.035
KHOS-NP, 0.3704 µM	1.01
KHOS-NP, 1.111 µM	0.991
KHOS-NP, 3.333 µM	0.942
KHOS-NP, 10 µM	0.914
MES-SA, 0.00017 µM	0.921
MES-SA, 0.00051 µM	0.934
MES-SA, 0.00152 µM	0.919
MES-SA, 0.00457 µM	0.908
MES-SA, 0.01372 µM	0.922
MES-SA, 0.04115 µM	0.894
MES-SA, 0.1235 µM	0.909
MES-SA, 0.3704 µM	0.886
MES-SA, 1.111 µM	0.898
MES-SA, 3.333 µM	0.864
MES-SA, 10 µM	0.827
SK-LMS-1, 0.00017 µM	1.03
SK-LMS-1, 0.00051 µM	1.02
SK-LMS-1, 0.00152 µM	0.994
SK-LMS-1, 0.00457 µM	0.976
SK-LMS-1, 0.01372 µM	0.987
SK-LMS-1, 0.04115 µM	0.997
SK-LMS-1, 0.1235 µM	0.958
SK-LMS-1, 0.3704 µM	0.954
SK-LMS-1, 1.111 µM	0.969
SK-LMS-1, 3.333 µM	0.913
SK-LMS-1, 10 µM	0.883
SW684, 0.00017 µM	1.1
SW684, 0.00051 µM	1.09
SW684, 0.00152 µM	1.09
SW684, 0.00457 µM	1.1
SW684, 0.01372 µM	1.07
SW684, 0.04115 µM	1.07
SW684, 0.1235 µM	1.06
SW684, 0.3704 µM	1.08
SW684, 1.111 µM	1.1
SW684, 3.333 µM	1.06
SW684, 10 µM	0.977
SW872, 0.00017 µM	1.012
SW872, 0.00051 µM	1.03
SW872, 0.00152 µM	0.975
SW872, 0.00457 µM	0.972
SW872, 0.01372 µM	0.971
SW872, 0.04115 µM	0.94
SW872, 0.1235 µM	0.891
SW872, 0.3704 µM	0.911
SW872, 1.111 µM	0.901
SW872, 3.333 µM	0.902
SW872, 10 µM	0.859
SW1353, 0.00017 µM	0.987
SW1353, 0.00051 µM	1
SW1353, 0.00152 µM	0.982
SW1353, 0.00457 µM	0.937
SW1353, 0.01372 µM	0.96
SW1353, 0.04115 µM	0.939
SW1353, 0.1235 µM	0.955
SW1353, 0.3704 µM	0.937
SW1353, 1.111 µM	0.933
SW1353, 3.333 µM	0.929
SW1353, 10 µM	0.87
SYO-1, 0.00017 µM	0.969
SYO-1, 0.00051 µM	0.921
SYO-1, 0.00152 µM	0.927
SYO-1, 0.00457 µM	0.91
SYO-1, 0.01372 µM	0.859
SYO-1, 0.04115 µM	0.825
SYO-1, 0.1235 µM	0.802
SYO-1, 0.3704 µM	0.792
SYO-1, 1.111 µM	0.752
SYO-1, 3.333 µM	0.72
SYO-1, 10 µM	0.698
VA-ES-BJ, 0.00017 µM	1.05
VA-ES-BJ, 0.00051 µM	1.03
VA-ES-BJ, 0.00152 µM	1.02
VA-ES-BJ, 0.00457 µM	1.02
VA-ES-BJ, 0.01372 µM	1.01
VA-ES-BJ, 0.04115 µM	1
VA-ES-BJ, 0.1235 µM	0.982
VA-ES-BJ, 0.3704 µM	0.97
VA-ES-BJ, 1.111 µM	0.972
VA-ES-BJ, 3.333 µM	0.942
VA-ES-BJ, 10 µM	0.859
